Measurements published in patent EP0561489A2, “Deodorant compositions containing materials for inhibiting bacterial adherence, method of use thereof, and method for determining materials that inhibit bacterial adherence” (THE MENNEN COMPANY, priority 1992, dated 1993).

Columns and labels:
[1] = test system: small colony diphtheroids; settings: human stratum corneum blended in physiological saline; U.S. Patent No. 4,518,517; cited from earlier work
[2] = test system: adherence of aerobic diphtheroids to differentiated HE cells; assay: Inhibition of bacterial adherence to differentiated human epithelial cells; type: cell-based; settings: for inhibition at 17000 µg/mL: Homo sapiens, Epithelial cell; for inhibition at 17000 µg/mL / inhibition of attachment of aerobic skin bacteria to differentiated HE cells (in words): 17 mg/ml final concentration
[3] = test system: adherence of aerobic diphtheroids to undifferentiated HE cells; assay: Inhibition of bacterial adherence to undifferentiated human epithelial cells; type: cell-based; settings: 17 mg/ml final concentration
Experimental: Skin microorganisms were isolated from the axillae of ten healthy human volunteers (male and female). Corynebacterium diphtheriae, Corynebacterium group J-K, and Escherichia coli 1677 were also obtained. The latter bacteria were included as controls for the adherence experiments. Microorganisms were maintained either by subculture on blood agar plates or trypticase soy agar base with 5% defibrinated sheep's blood. Stock cultures were frozen at -20°C in semi-solid trypticase soy agar for aerobes and chopped meat carbohydrate broth for anaerobes. For in vitro adherence assays the lipophilic corynebacteria were serially subcultured three times for periods of 24 hrs. in tryptose broth with 0.5% Tween-80.
Isolation of microorganisms from the axillae was performed by addition of 1 ml of a 0.1% Triton X-100 solution onto a sterile glass cylinder placed firmly on the skin in the axilla (total area 3.8cm²). […]
Human epithelial (HE) cells (primary culture from normal human epidermal keratinocytes) were used to assess the adherence of the axillary microorganisms. […] Differentiation of HE cells was induced by addition of calcium chloride (CaCl₂) to a concentration of 2 mM/L. Differentiation was assessed by mound formation (3 to 5 layers of cells) during tissue culture and by a modified Ayoub-Shklar's stain for differentiated epithelial cells. […]

Q: With O=C[C@H](O)[C@@H](O)[C@@H](O)[C@H](O)CO [galactose, D(+) galactose] as the molecule, how does the “effect on diphtheroid bacterial attachment to the skin sample (in words)” value (“effect” for short) [1] read?
A: neither galactose nor N-acetyl glucosamine had an effect

Q: What about the “inhibition of attachment to differentiated epithelial cells (in words)” value [2] of the same molecule?
A: poor capacity to inhibit attachment

Q: And the inhibition at 17000 µg/mL [2]?
A: 70 to 90%

Q: For OC[C@H]1O[C@H](O[C@H]2[C@H](O)[C@@H](O)[C@H](O)O[C@@H]2CO)[C@H](O)[C@@H](O)[C@@H]1O [maltose], which “effect” value [1] is on record?
A: a greater amount of bacteria attached to the skin than one treated with mannose

Q: For OC[C@H]1O[C@@](CO)(O[C@H]2O[C@H](CO)[C@@H](O)[C@H](O)[C@H]2O)[C@@H](O)[C@@H]1O [Sucrose, sucrose, reference compound], which “effect” value [1] is on record?
A: a greater amount of bacteria attached to the skin than one treated with mannose

Q: And the inhibition at 17000 µg/mL [2]?
A: -12.8 to 22.6%

Q: For O=C(CO)[C@@H](O)[C@H](O)[C@H](O)CO [fructose], which “effect” value [1] is on record?
A: a greater amount of bacteria attached to the skin than one treated with mannose

Q: For OC[C@H]1O[C@H](OC[C@H]2O[C@H](O[C@]3(CO)O[C@H](CO)[C@@H](O)[C@@H]3O)[C@H](O)[C@@H](O)[C@@H]2O)[C@H](O)[C@@H](O)[C@H]1O [raffinose], which “effect” value [1] is on record?
A: a greater amount of bacteria attached to the skin than one treated with mannose

Q: With OC[C@H]1O[C@@H](O[C@H]2[C@H](O)[C@@H](O)C(O)O[C@@H]2CO)[C@H](O)[C@@H](O)[C@H]1O (stereo partly drawn) [lactose] as the molecule, how does the “effect” value [1] read?
A: a greater amount of bacteria attached to the skin than one treated with mannose

Q: For C[C@@H](O)[C@H](O)[C@H](O)[C@@H](O)C=O [fucose, D(+) fucose], which “inhibition of attachment of aerobic skin bacteria to undifferentiated HE cells (in words)” value [3] is on record?
A: consistently able to inhibit attachment

Q: And the “inhibition of attachment of aerobic skin bacteria to differentiated HE cells (in words)” value [2]?
A: consistently able to inhibit attachment

Q: With CC(=O)N[C@H]1C(O)O[C@H](CO)[C@@H](O)[C@@H]1O (stereo partly drawn) [NAGA, N-acetyl-D-glucosamine] as the molecule, how does the “inhibition of attachment of aerobic skin bacteria to undifferentiated HE cells (in words)” value [3] read?
A: consistently able to inhibit attachment

Q: What about the “effect” value [1] of the same molecule?
A: neither galactose nor N-acetyl glucosamine had an effect

Q: And the “inhibition of attachment of aerobic skin bacteria to differentiated HE cells (in words)” value [2]?
A: consistently able to inhibit attachment

Q: Which “effect” value [1] does the source give for C[C@H](O)[C@H](O)[C@@H](O)[C@@H](O)C=O [rhamnose] here?
A: a greater amount of bacteria attached to the skin than one treated with mannose
